Series [1] has as its target T1, full-length beta-Catenin (Uniprot ID P35222) (Homo sapiens, UniProt P35222).
T1 construct: 10 nM full-length beta-Catenin (Uniprot ID P35222)
T1 sequence (P35222 1-781): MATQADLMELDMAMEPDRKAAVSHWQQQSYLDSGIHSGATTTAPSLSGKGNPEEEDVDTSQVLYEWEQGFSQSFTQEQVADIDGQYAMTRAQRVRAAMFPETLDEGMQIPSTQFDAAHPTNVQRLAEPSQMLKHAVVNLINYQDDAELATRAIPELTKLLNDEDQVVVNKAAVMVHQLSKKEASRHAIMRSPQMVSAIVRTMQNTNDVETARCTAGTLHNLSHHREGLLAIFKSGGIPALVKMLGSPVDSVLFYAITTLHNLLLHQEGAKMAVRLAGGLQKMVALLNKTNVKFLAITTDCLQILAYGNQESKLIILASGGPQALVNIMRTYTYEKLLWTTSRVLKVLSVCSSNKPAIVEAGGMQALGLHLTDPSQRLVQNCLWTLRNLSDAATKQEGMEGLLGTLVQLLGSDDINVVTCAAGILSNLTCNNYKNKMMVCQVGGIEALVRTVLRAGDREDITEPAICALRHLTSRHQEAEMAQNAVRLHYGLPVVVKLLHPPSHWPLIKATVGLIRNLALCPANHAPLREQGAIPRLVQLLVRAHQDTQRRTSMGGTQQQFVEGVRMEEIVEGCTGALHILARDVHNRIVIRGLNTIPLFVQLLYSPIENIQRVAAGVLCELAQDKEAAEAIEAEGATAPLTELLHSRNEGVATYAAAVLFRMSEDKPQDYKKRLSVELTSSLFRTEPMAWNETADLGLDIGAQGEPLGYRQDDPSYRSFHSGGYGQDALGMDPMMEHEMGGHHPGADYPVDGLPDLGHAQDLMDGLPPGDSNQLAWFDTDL
The series can be described thus: Fluorescence polarization IC50 (beta-catenin / 5FAM-TCF4 10-53 competition). Type of series: binding. On the technique in general: Polarisation of emitted light reports the rotation of a fluorescent probe.

The nature of series [2]: Solubility in PBS. Type of series: physicochemical. The procedure, abridged: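 Steps: ultracentrifuge the peptide PBS solution, inject the supernatant on HPLC, inject a 50 μM peptide DMSO solution as reference, then calculate solubility as area ratio (PBS/DMSO) × 50 uM.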
A short description of series [3]: CHI Log D procedure. The note with it: for chromatographic logD: pH 7.4, CHI Log D; for CHI Log D: pH 7.4. The format is physicochemical.
Setting [4] is: fluorescence polarization, read-out: beta-Catenin FP IC50.

Values after ≈ are worked out from the molar mass of the structure shown. Read-outs that look alike come from different tables or passages of the source.

One may read the Solubility as how much of the substance goes into solution per volume. A high value points to much dissolved substance. In general, chromatographic logD refers to a lipophilicity value derived from retention on a column. High values mean higher lipophilicity, low ones lower lipophilicity. With `CC[C@H](C)[C@@H]1NC(=O)[C@H](CC(=O)O)NC(=O)[C@]2(CC=CCCCC3(CCCC=CCCCCCC[C@@](C)(C(=O)N[C@@H](Cc4ccccc4)C(=O)N[C@@H](Cc4csc5ccccc45)C(=O)N[C@@H](CCC(N)=O)C(N)=O)NC(=O)[C@H](CCC(N)=O)NC(=O)[C@H](Cc4ccccc4)NC(=O)[C@H](CCC(N)=O)NC(=O)[C@H](C)NC(=O)[C@H](CCC(=O)O)NC(=O)[C@H](CC(=O)O)NC3=O)NC1=O)CCCN2C(C)=O` (stereo partly drawn) [I-663, Ac-PL3-Asp-Ile-B5-Asp-Glu-Ala-Gln-Phe-Gln-S8-Phe-BztA-Gln-NH2], the IC50 in series [1] (setting [4]) came out at 43 nM. Moreover, in series [2] (Solubility (uM)), the Solubility was determined as 42 µM (≈ 81.5 µg/mL). Besides, the chromatographic logD in series [3] stood at 1.8.

Regarding `CC[C@H](C)[C@@H]1NC(=O)[C@H](CC(=O)O)NC(=O)[C@]2(CC=CCCCC3(CCCC=CCCCCCC[C@@](C)(C(=O)N[C@@H](Cc4ccccc4)C(=O)N[C@@H](Cc4csc5ccccc45)C(=O)N[C@@H](CCC(N)=O)C(N)=O)NC(=O)[C@H](CCC(N)=O)NC(=O)[C@H](Cc4ccccc4)NC(=O)[C@H](Cc4c[nH]c5ccccc45)NC(=O)[C@H](C)NC(=O)[C@H](CCC(=O)O)NC(=O)[C@H](CC(=O)O)NC3=O)NC1=O)CCCN2C(C)=O` (stereo partly drawn) [I-664, Ac-PL3-Asp-Ile-B5-Asp-Glu-Ala-Trp-Phe-Gln-S8-Phe-BztA-Gln-NH2], the IC50 in series [1] (setting [4]) and in series [1] (read-out: FP EC50) was 996 nM each time. The “Solubility” value in series [2] is 45 µM (≈ 89.9 µg/mL). Further, in series [3], the “CHI Log D” value is recorded as 2.433.

For `CC[C@H](C)[C@@H]1NC(=O)[C@H](CC(=O)O)NC(=O)[C@]2(CC=CCCCC3(CCCC=CCCCCCC[C@@](C)(C(=O)N[C@@H](Cc4ccccc4)C(=O)N[C@@H](Cc4csc5ccccc45)C(=O)N[C@@H](CCC(N)=O)C(N)=O)NC(=O)[C@H](CCC(N)=O)NC(=O)[C@H](Cc4ccccc4)NC(=O)[C@H](Cc4c[nH]c5ccccc45)NC(=O)[C@H](C)NC(=O)[C@H](CCC(=O)O)NC(=O)[C@H](CC(=O)O)NC3=O)NC1=O)CCCN2C(C)=O` (stereo partly drawn) [I-665, Ac-PL3-Asp-Ile-B5-Asp-Glu-Ala-Trp-Phe-Gln-S8-Phe-BztA-Gln-NH2], the IC50 in series [1] (setting [4]) and in series [1] (read-out: FP EC50) was 923 nM each time. Further, in series [2], the “Solubility” value worked out at 47 µM (≈ 93.9 µg/mL). The “CHI Log D” value in series [3] stood at 2.448.

`CC(=O)N1CCC[C@]12CC=CCCCC1(CCCC=CCCCCCC[C@@](C)(C(=O)N[C@@H](Cc3ccsc3)C(=O)N[C@@H](Cc3csc4ccccc34)C(=O)N[C@@H](CCC(N)=O)C(N)=O)NC(=O)[C@H](CC(N)=O)NC(=O)[C@H](Cc3ccccc3)NC(=O)[C@H](C)NC(=O)[C@H](C)NC(=O)[C@H](CCC(=O)O)NC(=O)[C@H](CC(=O)O)NC1=O)NC(=O)[C@H](CC(C)(C)C)NC(=O)[C@H](CC(=O)O)NC2=O` (stereo partly drawn) [I-682, Ac-PL3-Asp-Npg-B5-Asp-Glu-Ala-Ala-Phe-Asn-S8-3Thi-BztA-Gln-NH2]: the IC50 in series [1] (setting [4]) and in series [1] (read-out: FP EC50) was 41 nM throughout. Further, the “Solubility” value in series [2] worked out at 47 µM (≈ 88.8 µg/mL). For the same compound, the “CHI Log D” value in series [3] was 2.409.

Regarding `CC(=O)N1CCC[C@]12CC=CCCCC1(CCCC=CCCCOC(=O)N3CC[C@@](C(=O)N[C@@H](Cc4ccsc4)C(=O)N[C@@H](Cc4csc5ccccc45)C(=O)N[C@@H](Cc4c[nH]cn4)C(N)=O)(C3)NC(=O)[C@H](CC(N)=O)NC(=O)[C@H](Cc3ccccc3)NC(=O)[C@H](C)NC(=O)[C@H](C)NC(=O)[C@H](CCC(=O)O)NC(=O)[C@H](CC(=O)O)NC1=O)NC(=O)[C@H](CC(C)(C)C)NC(=O)[C@H](CC(=O)O)NC2=O` (stereo partly drawn) [I-698, Ac-PL3-Asp-Npg-B5-Asp-Glu-Ala-Ala-Phe-Asn-PyrS2-3Thi-BztA-His-NH2], in series [1] (setting [4]), the IC50 turned out to be 5 nM. Further, the “Solubility” value in series [2] was 43 µM (≈ 83.5 µg/mL). Also, the “CHI Log D” value in series [3] is reported as 2.153.

With `CC[C@H](C)[C@@H]1NC(=O)[C@H](CC(=O)O)NC(=O)[C@]2(CC=CCCCC3(CCCC=CCCCCCC[C@@](C)(C(=O)N[C@@H](Cc4ccccc4)C(=O)N[C@@H](Cc4csc5ccccc45)C(=O)N[C@@H](CCC(N)=O)C(N)=O)NC(=O)[C@H](CC(N)=O)NC(=O)[C@H](Cc4ccccc4)NC(=O)[C@H](C)NC(=O)[C@H](C)NC(=O)[C@H](CN(CC(=O)O)CC(F)(F)F)NC(=O)[C@H](CC(=O)O)NC3=O)NC1=O)CCCN2C(C)=O` (stereo partly drawn) [I-699, Ac-PL3-Asp-Ile-B5-Asp-TfeGA-Ala-Ala-Phe-Asn-S8-Phe-BztA-Gln-NH2], the IC50 in series [1] (setting [4]) is 43 nM. Also, in series [2], the “Solubility” value was determined as 50 µM (≈ 98.3 µg/mL). Moreover, the chromatographic logD in series [3] is 2.63.

For the compound `CC[C@H](C)[C@@H]1NC(=O)[C@H](CC(=O)O)NC(=O)[C@]2(CC=CCCCC3(CCCC=CCCCCCC[C@@](C)(C(=O)N[C@@H](Cc4ccsc4)C(=O)N[C@@H](Cc4csc5ccccc45)C(=O)N[C@@H](Cc4c[nH]cn4)C(N)=O)NC(=O)[C@H](CC(N)=O)NC(=O)[C@H](Cc4ccccc4)NC(=O)[C@H](C)NC(=O)[C@H](C)NC(=O)[C@H](CN(CC(=O)O)CC(F)(F)F)NC(=O)[C@H](CC(=O)O)NC3=O)NC1=O)CCCN2C(C)=O` (stereo partly drawn) [I-702, Ac-PL3-Asp-Ile-B5-Asp-TfeGA-Ala-Ala-Phe-Asn-S8-3Thi-BztA-His-NH2], the IC50 in series [1] (setting [4]) is 76 nM. In series [2] (Solubility (uM)), this compound had a Solubility of 40 µM (≈ 79.3 µg/mL). The chromatographic logD in series [3] came out at 2.75.

For `CC(=O)N1CCC[C@]12CC=CCCCC1(CCCC=CCCCCCC[C@@](C)(C(=O)N[C@@H](Cc3ccsc3)C(=O)N[C@@H](Cc3csc4ccccc34)C(=O)N[C@@H](Cc3c[nH]cn3)C(N)=O)NC(=O)[C@H](CC(N)=O)NC(=O)[C@H](Cc3ccccc3)NC(=O)[C@H](C)NC(=O)[C@H](C)NC(=O)[C@H](CN(CC(=O)O)CC(F)(F)F)NC(=O)[C@H](CC(=O)O)NC1=O)NC(=O)[C@H](CC(C)(C)C)NC(=O)[C@H](CC(=O)O)NC2=O` (stereo partly drawn) [I-705, Ac-PL3-Asp-Npg-B5-Asp-TfeGA-Ala-Ala-Phe-Asn-S8-3Thi-BztA-His-NH2], the IC50 in series [1] (setting [4]) amounted to 58 nM. The same compound came in with a Solubility in series [2] (Solubility (uM)) of 25 µM (≈ 49.9 µg/mL). Moreover, the chromatographic logD in series [3] was found to be 2.89.

As to `CC(=O)N1CCC[C@]12CC=CCCCC1(CCCC=CCCCCCC[C@@](C)(C(=O)N[C@@H](Cc3ccccc3)C(=O)N[C@@H](Cc3csc4ccccc34)C(=O)N[C@@H](CCC(N)=O)C(N)=O)NC(=O)[C@H](CC(N)=O)NC(=O)[C@H](Cc3ccccc3)NC(=O)[C@H](C)NC(=O)[C@H](C)NC(=O)[C@H](CN(CC(=O)O)CC(F)(F)F)NC(=O)[C@H](CC(=O)O)NC1=O)NC(=O)[C@H](CC1CCCCC1)NC(=O)[C@H](CC(=O)O)NC2=O` (stereo partly drawn) [I-706, Ac-PL3-Asp-Cha-B5-Asp-TfeGA-Ala-Ala-Phe-Asn-S8-Phe-BztA-Gln-NH2], in series [1] (setting [4]), the IC50 was 57 nM. Further, the Solubility in series [2] (Solubility (uM)) is 48 µM (≈ 96.3 µg/mL). The compound further came in with a chromatographic logD in series [3] of 2.99.

Regarding `CC(=O)N1CCC[C@]12CC=CCCCC1(CCCC=CCCCCCC[C@@](C)(C(=O)N[C@@H](Cc3ccsc3)C(=O)N[C@@H](Cc3csc4ccccc34)C(=O)N[C@@H](CCC(N)=O)C(N)=O)NC(=O)[C@H](CC(N)=O)NC(=O)[C@H](Cc3ccccc3)NC(=O)[C@H](C)NC(=O)[C@H](C)NC(=O)[C@H](CN(CC(=O)O)CC(F)(F)F)NC(=O)[C@H](CC(=O)O)NC1=O)NC(=O)[C@H](CC1CCCCC1)NC(=O)[C@H](CC(=O)O)NC2=O` (stereo partly drawn) [I-707, Ac-PL3-Asp-Cha-B5-Asp-TfeGA-Ala-Ala-Phe-Asn-S8-3Thi-BztA-Gln-NH2], the IC50 in series [1] (setting [4]) and in series [1] (read-out: FP EC50) was 46 nM throughout. Further, the “Solubility” value in series [2] worked out at 48 µM (≈ 96.6 µg/mL). In series [3], the “CHI Log D” value came to 2.963.

Values taken from US20240116985A1, “STAPLED PEPTIDES AND METHODS THEREOF” (priority 2020, published 2024).
